Test results from BindingDB's records for doi:10.1021/cb600311v (University of California San Francisco, 2006).

Assays:
[1] = target: T1, Thyroid hormone receptor alpha (Homo sapiens, UniProt P10827); assay: Transactivation Assay in U2OS cells
T1 sequence (P10827 whole entry): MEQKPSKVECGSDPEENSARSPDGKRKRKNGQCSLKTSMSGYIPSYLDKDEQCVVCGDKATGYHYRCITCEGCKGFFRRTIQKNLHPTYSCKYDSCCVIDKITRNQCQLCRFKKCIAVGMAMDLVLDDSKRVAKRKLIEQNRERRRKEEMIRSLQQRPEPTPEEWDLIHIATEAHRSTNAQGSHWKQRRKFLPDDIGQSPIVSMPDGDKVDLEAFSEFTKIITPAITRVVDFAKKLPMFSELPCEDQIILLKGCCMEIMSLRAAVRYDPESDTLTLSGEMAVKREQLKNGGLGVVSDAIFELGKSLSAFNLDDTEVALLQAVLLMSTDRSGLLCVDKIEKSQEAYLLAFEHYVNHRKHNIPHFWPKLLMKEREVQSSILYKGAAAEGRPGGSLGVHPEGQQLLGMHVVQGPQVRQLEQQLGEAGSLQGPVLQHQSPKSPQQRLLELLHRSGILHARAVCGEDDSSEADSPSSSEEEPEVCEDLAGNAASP
Source text: TRE-driven dual-luciferase reporter assay in human bone osteosarcoma epithelial (U2OS) cell line.

[2] = target: T1, Thyroid hormone receptor alpha; assay: Competition Binding Assay
Source text: (§1) Thyroid hormone competitive binding assay using TNT T7 quick-coupled transcription translation system from promega.

[3] = target: T2, Thyroid hormone receptor beta (Homo sapiens, UniProt P10828); assay: Competition Binding Assay
T2 sequence (P10828 whole entry): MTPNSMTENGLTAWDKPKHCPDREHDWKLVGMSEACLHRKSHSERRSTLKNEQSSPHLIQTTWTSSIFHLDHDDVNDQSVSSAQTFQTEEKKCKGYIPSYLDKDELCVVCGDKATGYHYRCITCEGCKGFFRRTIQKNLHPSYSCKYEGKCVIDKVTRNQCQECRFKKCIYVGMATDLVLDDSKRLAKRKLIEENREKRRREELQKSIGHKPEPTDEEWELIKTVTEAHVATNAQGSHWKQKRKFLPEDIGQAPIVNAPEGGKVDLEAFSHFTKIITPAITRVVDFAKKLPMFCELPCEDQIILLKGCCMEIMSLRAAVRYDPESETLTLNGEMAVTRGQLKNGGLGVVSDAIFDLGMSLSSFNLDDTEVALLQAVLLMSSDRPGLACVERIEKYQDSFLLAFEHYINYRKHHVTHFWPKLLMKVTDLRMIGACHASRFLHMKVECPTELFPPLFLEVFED
Source text: as §1

Row | Structure (SMILES) | EC50 [1] | Kd [2] | Kd [3]
1 | CC(C)c1cc(Oc2c(I)cc(Cc3[nH]c(=O)[nH]c3O)cc2I)ccc1O | 0.034 µM | 0.0012 µM | 0.0017 µM
2 | Cc1cc(Cc2[nH]c(=O)[nH]c2O)cc(C)c1Oc1ccc(O)c(C(C)C)c1 [CO22] | 3.87 µM | 0.286 µM | 0.28 µM
